Data reported in CN116323625A, “杂环类衍生物、其制备方法及其医药上的用途” (Zhejiang Hisun Pharmaceutical Co Ltd, priority 2021, dated 2023).

Molecular target: T1, KRAS G12D:RAF1 protein interaction [KRAS G12D:RAF1蛋白相互作用] (Homo sapiens, UniProt P01116, G12D)
T1 construct: purchased Cisbio 63ADK000CB21PEG
Test: Inhibition of the KRAS G12D:RAF1 protein interaction (TR-FRET binding assay)
Settings: in vitro, 10000nM-0.1nM, 4 h at room temperature

T1 sequence (P01116 1-188 isoform P01116-2 G12D): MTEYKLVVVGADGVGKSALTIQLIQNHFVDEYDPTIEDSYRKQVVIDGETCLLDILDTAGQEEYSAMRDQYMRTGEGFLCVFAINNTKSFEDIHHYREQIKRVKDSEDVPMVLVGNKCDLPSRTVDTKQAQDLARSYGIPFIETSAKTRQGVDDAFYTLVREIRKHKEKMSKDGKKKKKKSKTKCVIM

In the case of `OCCN1C2CCC1CN(c1nc(OC[C@@]34CCCN3C[C@H](F)C4)nc3c(F)c(-c4cc(O)cc5cccc(F)c45)ncc13)C2` [实施例2, 5-fluoro-4-(8-fluoro-2-(((2R,7aS)-2-fluorotetrahydro-1H-pyrrolizin-7a(5H)-yl)methoxy)-4-(8-(2-hydroxyethyl)-3,8-diazabicyclo[3.2.1]octan-3-yl)pyrido[4,3-d]pyrimidin-7-yl)naphthalen-2-ol], the IC50 is reported as 189 nM.

Work on `O=C([C@H]1CCCN1)N1C2CCC1CN(c1nc(OC[C@@]34CCCN3C[C@H](F)C4)nc3c(F)c(-c4cc(O)cc5cccc(F)c45)ncc13)C2` [实施例3, 4-(8-(D-prolyl)-3,8-diazabicyclo[3.2.1]octan-3-yl)-8-fluoro-7-(8-fluoro-3-hydroxynaphthalen-1-yl)-2-(((2R,7aS)-2-fluorotetrahydro-1H-pyrrolizin-7a(5H)-yl)methoxy)pyrido[4,3-d]pyrimidine] yielded an IC50 of 114 nM.
